The target of the test is T1, Helicobacter pylori-derived urease (Helicobacter pylori, UniProt P69996).
T1 construct: an urease solution prepared from Helicobacter pylori; endogenous in cells
The test is described as follows: Screening of urease inhibitors (ammonia yield from urea). Format: biochemical. On the procedure: Screening of Urease Inhibitors
One hundred (100) μl of 100 mM Bis-Tris buffer (pH 6.5) and 60 μl of an urease solution prepared from Helicobacter pylori were added to 20 μl of a test drug dissolved in 0.1% dimethylformamide solution. The mixture was incubated at room temperature for 30 minutes, and then 20 μl of 100 mM urea was added. The mixture was kept at room temperature for 10 minutes, and then the yielded ammonia in the incubation mixture was measured using a commercial test kit (Ammonia Test Wako®; Wako Pure Chemical). The percent inhibition against the yield of ammonia in the solvent addition group was calculated to obtain the IC50 value.

Among the data in US5840917A, “Phosphorylamides, their preparation and use” (Takeda Chemical Industries, Ltd., priority 1995, dated 1998) are IC50 values, retold here.

Like-named read-outs stand apart in the source and are kept apart here.

A word on the IC50: it is the point on the concentration scale where inhibition reaches its midpoint.

T1 sequence (P69996 whole entry, looked up): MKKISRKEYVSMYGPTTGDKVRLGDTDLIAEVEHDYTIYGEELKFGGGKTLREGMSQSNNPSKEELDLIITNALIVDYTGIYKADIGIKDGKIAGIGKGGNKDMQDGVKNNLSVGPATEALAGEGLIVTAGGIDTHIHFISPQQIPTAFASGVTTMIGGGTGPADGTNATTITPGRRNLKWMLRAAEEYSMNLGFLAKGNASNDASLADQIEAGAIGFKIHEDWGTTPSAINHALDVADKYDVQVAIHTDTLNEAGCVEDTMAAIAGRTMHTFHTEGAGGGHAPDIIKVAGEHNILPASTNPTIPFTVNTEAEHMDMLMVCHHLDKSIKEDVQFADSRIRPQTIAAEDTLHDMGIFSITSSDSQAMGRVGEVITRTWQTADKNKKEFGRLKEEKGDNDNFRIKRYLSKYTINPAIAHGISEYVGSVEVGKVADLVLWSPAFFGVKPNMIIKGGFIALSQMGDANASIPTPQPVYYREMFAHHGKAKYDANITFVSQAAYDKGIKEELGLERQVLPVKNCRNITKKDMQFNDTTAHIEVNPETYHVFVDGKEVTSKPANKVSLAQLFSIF

Consider `COc1csc(C(=O)NP(N)(N)=O)c1` [Example 24, N-(Diaminophosphinyl)-4-methoxy-2-thiophenecarboxamide], for which inhibition was half-maximal at 9.1 nM (IC50).
The same measure, in the same setting: in the case of `Cc1ccc(C(=O)NP(N)(N)=O)cc1` [Reference Example 15, N-(Diaminophosphinyl)-4-methylbenzamide] it was 17 nM; in that of `NP(N)(=O)NC(=O)C=Cc1nc2ccccc2o1` [Example 69, N-(Diaminophosphinyl)-3-(2-benzoxazolyl)propenamide], 9.7 nM.
In the case of `CCOc1ccc2sc(SCC(=O)NP(N)(N)=O)nc2c1` [Example 66, N-(Diaminophosphinyl)-5-ethoxy-2-benzothiazolylthioacetamide], for the setting “Bis-Tris pH 6.5, room temperature, 30 min preincubation, 10 min with urea, read-out: IC50, inhibitory effect against Helicobacter pylori-derived urease”, the half-maximal inhibitory concentration (IC50) stood at 10 nM.
`NP(N)(=O)NC(=O)c1sc2ccccc2c1Cl` [Example 74, N-(Diaminophosphinyl)-3-chloro-2-benzothiophenecarboxamide] gave a concentration for half-maximal inhibition (IC50) of 5.1 nM.
As for `NP(N)(=O)NC(=O)CCc1ccc(Cl)cc1` [compound 39, N-(Diaminophosphinyl)-3-(4-chlorophenyl)propionamide], the half-inhibitory concentration (IC50) is 5.9 nM.
As to `NP(N)(=O)NC(=O)CSc1ccc(F)cc1` [Example 62, N-(Diaminophosphinyl)-4-fluorophenylthioacetamide], half-maximal inhibition (IC50) was put at 2.8 nM.
`NP(N)(=O)NC(=O)C=Cc1nc2cc(Cl)ccc2o1` [Example 72, N-(Diaminophosphinyl)-3-(5-chloro-2-benzoxazolyl)propenamide] came in with a 50% inhibitory concentration (IC50) of 3.6 nM.
The same measure, in the same setting: in the case of `Cc1ccc(C(=O)NP(N)(N)=O)o1` [Example 43, N-(Diaminophosphinyl)-5-methyl-2-furancarboxamide] it was 6.2 nM.
The compound `NP(N)(=O)NC(=O)c1cccnc1` [Reference Example 2, N-(Diaminophosphinyl)-3-pyridinecarboxamide] showed an IC50 of 9.6 nM.
On the same count and under the same terms, in the case of `Cc1csc(C(=O)NP(N)(N)=O)c1Cl` [Example 90, N-(Diaminophosphinyl)-3-chloro-4-methyl-2-thiophenecarboxamide] it was 6.3 nM; in that of `NP(N)(=O)NC(=O)c1ccc(C(F)(F)F)cc1` [compound 19, N-(Diaminophosphinyl)-4-trifluoromethylbenzamide], 12 nM; in that of `Cc1nc2cc(C(=O)NP(N)(N)=O)ccc2o1` [Example 68, N-(Diaminophosphinyl)-2-methyl-5-benzoxazolecarboxamide], 18 nM.
Same read-out and setting: the value for `NP(N)(=O)NC(=O)C=Cc1cccs1` [Example 78, N-(Diaminophosphinyl)-3-(2-thienyl)propenamide] was 4.7 nM; that for `CCc1occc1C(=O)NP(N)(N)=O` [Example 51, N-(Diaminophosphinyl)-2-ethyl-3-furancarboxamide] was 22 nM; that for `NP(N)(=O)NC(=O)CCc1nc2ccccc2o1` [Example 82, N-(Diaminophosphinyl)-3-(2-benzoxazolyl)propionamide] was 27 nM.
Still for that read-out and setting: in the case of `NP(N)(=O)NC(=O)COc1cccc(F)c1` [Example 60, N-(Diaminophosphinyl)-3-fluorophenoxyacetamide] it was 3.6 nM.
As to `Cc1onc(-c2ccccc2)c1C(=O)NP(N)(N)=O` [Example 73, N-(Diaminophosphinyl)-5-methyl-3-phenyl-4-isoxazolecarboxamide], the IC50 worked out at 55 nM.
`Cc1c(Cl)sc(Cl)c1C(=O)NP(N)(N)=O` [Example 88, N-(Diaminophosphinyl)-2,5-dichloro-4-methyl-3-thiophenecarboxamide] came in with an IC50 of 3.3 nM.
`NP(N)(=O)NC(=O)c1csc([N+](=O)[O-])c1` [Example 21, N-(Diaminophosphinyl)-5-nitro-3-thiophenecarboxamide] gave a half-maximal inhibitory concentration (IC50) of 4.3 nM.
On the same count and under the same terms, the value for `NP(N)(=O)NC(=O)COc1ccc(Cl)cc1` [Example 55, N-(Diaminophosphinyl)-4-chlorophenoxyacetamide] was 3 nM; that for `NP(N)(=O)NC(=O)c1cccc(F)c1` [Reference Example 8, N-(Diaminophosphinyl)-3-fluorobenzamide] was 4.5 nM.
The same measure, in the same setting: the value for `Cc1ccsc1C(=O)NP(N)(N)=O` [Example 4, N-(Diaminophosphinyl)-3-methyl-2-thiophenecarboxamide] was 6.8 nM; that for `NP(N)(=O)NC(=O)c1ccc(C(F)F)s1` [Example 13, N-(Diaminophosphinyl)-5-difluoromethyl-2-thiophenecarboxamide] was 5.2 nM.
`Cc1cc(C(=O)NP(N)(N)=O)sc1Br` [Example 29, N-(Diaminophosphinyl)-5-bromo-4-methyl-2-thiophenecarboxamide] had an IC50 of 8.1 nM.
The same measure, in the same setting: in the case of `NP(N)(=O)NC(=O)C=Cc1ccc(Cl)c(Cl)c1` [compound 36, N-(Diaminophosphinyl)-3,4-dichlorocinnamamide] it was 8.9 nM; in that of `Cc1ccoc1C(=O)NP(N)(N)=O` [Example 92, N-(Diaminophosphinyl)-3-methyl-2-furancarboxamide], 6 nM; in that of `NP(N)(=O)NC(=O)c1cc(Br)sc1Cl` [Example 86, N-(Diaminophosphinyl)-5-bromo-2-chloro-3-thiophenecarboxamide], 0.9 nM.
Same read-out and setting: in the case of `CS(=O)(=O)c1ccc(C(=O)NP(N)(N)=O)s1` [Example 18, N-(Diaminophosphinyl)-5-methanesulfonyl-2-thiophenecarboxamide] it was 11 nM; in that of `NP(N)(=O)NC(=O)c1cc(Cl)cs1` [Example 84, N-(Diaminophosphinyl)-4-chloro-2-thiophenecarboxamide], 2.5 nM.
On the same count and under the same terms, the value for `NP(N)(=O)NC(=O)c1cscc1Br` [Example 37, N-(Diaminophosphinyl)-4-bromo-3-thiophenecarboxamide] was 1.8 nM.
In the case of `Cc1cc(C(=O)NP(N)(N)=O)c(Cl)s1` [Example 89, N-(Diaminophosphinyl)-2-chloro-5-methyl-3-thiophenecarboxamide], the IC50 was 2.6 nM.
Still for that read-out and setting: in the case of `NP(N)(=O)NC(=O)c1cccc2ccccc12` [compound 26, N-(Diaminophosphinyl)-1-naphthalenecarboxamide] it was 13 nM.
`NP(N)(=O)NC(=O)Cc1noc2ccccc12` [Example 75, N-(Diaminophosphinyl)-3-benzisoxazolylacetamide] had a concentration for half-maximal inhibition (IC50) of 22 nM.
Turning to `Cc1cscc1C(=O)NP(N)(N)=O` [Example 85, N-(Diaminophosphinyl)-4-methyl-3-thiophenecarboxamide], it took 2.2 nM to reach half-maximal inhibition (IC50).
Still for that read-out and setting: in the case of `Cc1cc(C)c(C)c(OCC(=O)NP(N)(N)=O)c1` [Example 56, N-(Diaminophosphinyl)-2,3,5-trimethylphenoxyacetamide] it was 41 nM; in that of `NP(N)(=O)NC(=O)c1ccc(Br)o1` [Example 39, N-(Diaminophosphinyl)-5-bromo-2-furancarboxamide], 2.2 nM.
For the compound `NP(N)(=O)NC(=O)COc1cccc(Cl)c1` [Example 58, N-(Diaminophosphinyl)-3-chlorophenoxyacetamide], the IC50 was determined as 3 nM.
In turn, `COc1ccc(OCC(=O)NP(N)(N)=O)cc1` [Example 53, N-(Diaminophosphinyl)-4-methoxyphenoxyacetamide] gave a 50% inhibitory concentration (IC50) of 7.9 nM.
Still for that read-out and setting: the value for `NP(N)(=O)NC(=O)c1sccc1Cl` [Example 14, N-(Diaminophosphinyl)-3-chloro-2-thiophenecarboxamide] was 1.1 nM.
Compound `Cc1cc(C(=O)NP(N)(N)=O)sc1Cl` [Example 35, N-(Diaminophosphinyl)-5-chloro-4-methyl-2-thiophenecarboxamide] yielded a concentration for half-maximal inhibition (IC50) of 11 nM.
Still for that read-out and setting: the value for `Cc1cc(C)c(C(=O)NP(N)(N)=O)s1` [Example 91, N-(Diaminophosphinyl)-3,5-dimethyl-2-thiophenecarboxamide] was 6.3 nM; that for `NP(N)(=O)NC(=O)c1c(F)cccc1F` [Reference Example 9, N-(Diaminophosphinyl)-2,6-difluorobenzamide] was 9.7 nM.
On the same count and under the same terms, in the case of `NP(N)(=O)NC(=O)c1cc(Cl)c(Cl)s1` [Example 36, N-(Diaminophosphinyl)-4,5-dichloro-2-thiophenecarboxamide] it was 7.4 nM; in that of `NP(N)(=O)NC(=O)CSc1nc2cc(Cl)ccc2s1` [Example 65, N-(Diaminophosphinyl)-5-chloro-2-benzothiazolylthioacetamide], 2.3 nM.
The same measure, in the same setting: in the case of `NP(N)(=O)NC(=O)CSc1nc2ccccc2o1` [Example 63, N-(Diaminophosphinyl)-2-benzoxazolylthioacetamide] it was 5.6 nM; in that of `NP(N)(=O)NC(=O)c1csc(C(F)F)c1` [Example 31, N-(Diaminophosphinyl)-5-difluoromethyl-3-thiophenecarboxamide], 7.1 nM.
Compound `NP(N)(=O)NC(=O)c1ccsc1Cl` [Example 38, N-(Diaminophosphinyl)-2-chloro-3-thiophenecarboxamide] displayed a concentration for half-maximal inhibition (IC50) of 1.7 nM.
Same read-out and setting: in the case of `N#CC(=Cc1cccs1)C(=O)NP(N)(N)=O` [Example 79, N-(Diaminophosphinyl)-2-cyano-3-(2-thienyl)propenamide] it was 6 nM; in that of `NP(N)(=O)NC(=O)c1nc2ccccc2s1` [Example 70, N-(Diaminophosphinyl)-2-benzothiazolecarboxamide], 13 nM.
`NP(N)(=O)NC(=O)c1cc(F)cc(F)c1` [compound 21, N-(Diaminophosphinyl)-3,5-difluorobenzamide] came in with a half-inhibitory concentration (IC50) of 7.9 nM.
As to `NP(N)(=O)NC(=O)C=Cc1ccc(Cl)cc1` [compound 31, N-(Diaminophosphinyl)-4-chlorocinnamamide], the IC50 was 71 nM.
For `NP(N)(=O)NC(=O)c1ccc([N+](=O)[O-])s1` [Example 10, N-(Diaminophosphinyl)-5-nitro-thiophenecarboxamide], the IC50 was 3.6 nM.
